Values of other authors in patent publication US20240239814A1, “Complexes Of CU(I) As Antitumor Agents” (priority 2021, published 2024).

How the values were obtained:
[1] = tested on: panel of human cancer cells; conditions: 2D monolayer, cited from earlier work
[2] = tested on: human cancer cell lines endowed with acquired or natural resistance to CDDP or to OXP; conditions: fold lower IC50 in resistant cell lines; cited from earlier work
[3] = tested on: HCT-15 colon cancer spheroids; conditions: HCT-15 spheroids; cited from earlier work
[4] = tested on: LoVo colon cancer spheroids; conditions: cited from earlier work
[5] = compared with CDDP; cited from earlier work
[6] = cited from earlier work
[7] = tested on: Lewis Lung Carcinoma; conditions: different schedules, compared with CDDP; cited from earlier work
[8] = animals of the Lewis Lung Carcinoma model; cited from earlier work
[9] = tested on: human colorectal cancer xenografts; conditions: oxaliplatin-sensitive and resistant models; cited from earlier work
[10] = tested on: proteasome; conditions: cited from earlier work
[11] = tested on: human non transformed cells; conditions: average IC50 normal cells / average IC50 malignant cells; cited from earlier work

In the case of F[P-](F)(F)(F)(F)F.OCP(CO)CO.OCP(CO)CO.OCP(CO)CO.OCP(CO)CO.[Cu+] [[Cu(thp)4][PF6]], the “cytotoxicity relative to CDDP” value ([1]; fold more cytotoxic than CDDP) is given as “up to 50 fold”, the “cytotoxicity relative to OXP” value ([1]; fold more cytotoxic than OXP) is given as at most 30 fold and the “IC50 relative to the reference metallodrugs” value [2] is given as “up to 35 fold”. The “IC50 relative to OXP” value [3] was “very similar to those of OXP”, the “IC50 relative to OXP” value [4] was “very similar to those of OXP” and the “median lethal doses (LD50) and maximum tolerated doses (MTD)” value [5] was “significantly higher that those recorded with CDDP”. For the same compound, the “solubility and stability in water solution” value [6] was “highly soluble and stable in water solution”, the “inhibition of proliferation of tumor cell population in vivo” value [7] was “superior to that induced by the gold-standard drug CDDP” and the “clinical signs of toxicity” value [8] was “no clinical signs of toxicity and no anorexia”. For the same compound, the “efficacy of chemotherapy in xenografts” value [9] was “extremely effective in both oxaliplatin-sensitive and resistant models”, the “effect on proteolytic activities of proteasome” value [10] was “inhibit the proteolytic activities of proteasome” and the “selectively index relative to CDDP” value [11] was “about 30 times”. For the same compound, the “selectively index relative to OXP” value [11] was 3 times.
